The series can be described thus: Rat biodistribution of Tc-99m complexes.

With `CCOCCCP(CCOC)CCP(CCCOCC)CCOC` (stereo not drawn) [Compound 30], under “2 min p.i.”, the Blood is 9.52 % Injected dose/organ, the Heart is on record as 0.73 % Injected dose/organ, the “Heart/Blood Counts/Gram Ratio” value is reported as 1.14 and the “Heart/Liver Counts/Gram Ratio” value came out at 1.28. The Liver (2 min p.i.) came to 7.69 % Injected dose/organ. In addition, under “60 min p.i.”, the Blood turned out to be 0.34 % Injected dose/organ, the Heart amounted to 0.70 % Injected dose/organ, the “Heart/Blood Counts/Gram Ratio” value came out at 27.4 and the “Heart/Liver Counts/Gram Ratio” value is listed as 4.24. Where the note is “60 min p.i.”, this compound showed a Liver of 1.89 % Injected dose/organ.

As for `CCOCCP(CCOCC)CCP(CCOCC)CCOCC` [Compound 1, (EtOC2 H4)2 P--C2 H4 --P(C2 H4 OEt)2], under “2 min p.i.”, the Blood stood at 2.25 % Injected dose/organ, the Heart is listed as 1.66 % Injected dose/organ, the “Heart/Blood Counts/Gram Ratio” value worked out at 10.5 and the “Heart/Liver Counts/Gram Ratio” value was determined as 1.52. The compound further displayed a Liver (2 min p.i.) of 14.1 % Injected dose/organ. For the same compound, where the note is “60 min p.i.”, the Blood is 0.28 % Injected dose/organ, the Heart is 1.68 % Injected dose/organ, the “Heart/Blood Counts/Gram Ratio” value was determined as 86.4 and the “Heart/Liver Counts/Gram Ratio” value worked out at 14.4. Also, the Liver (60 min p.i.) worked out at 1.62 % Injected dose/organ.

Turning to `CCOCCOCCP(CCOCCOCC)CCP(CCOCCOCC)CCOCCOCC` [Compound 8], for the setting “2 min p.i.”, the Blood is listed as 11.0 % Injected dose/organ, the Heart is given as 0.54 % Injected dose/organ, the “Heart/Blood Counts/Gram Ratio” value was determined as 0.72 and the “Heart/Liver Counts/Gram Ratio” value was determined as 0.41. The Liver (2 min p.i.) is listed as 19.0 % Injected dose/organ. Also, under “60 min p.i.”, the Blood was 1.69 % Injected dose/organ, the Heart is 0.42 % Injected dose/organ, the “Heart/Blood Counts/Gram Ratio” value was 4.0 and the “Heart/Liver Counts/Gram Ratio” value worked out at 0.46. Under “60 min p.i.”, this compound came in with a Liver of 12.0 % Injected dose/organ.

Consider `CCOC(C)CP(CCP(CC(C)OCC)CC(C)OCC)CC(C)OCC` (stereo not drawn) [Compound 13], for which, where the note is “2 min p.i.”, the Blood was found to be 7.17 % Injected dose/organ, the Heart stood at 1.21 % Injected dose/organ, the “Heart/Blood Counts/Gram Ratio” value came to 2.54 and the “Heart/Liver Counts/Gram Ratio” value is given as 0.70. For the same compound, for the setting “2 min p.i.”, the Liver was 22.0 % Injected dose/organ. Moreover, where the note is “60 min p.i.”, the Blood came out at 1.77 % Injected dose/organ, the Heart is recorded as 0.96 % Injected dose/organ, the “Heart/Blood Counts/Gram Ratio” value turned out to be 7.9 and the “Heart/Liver Counts/Gram Ratio” value was 1.25. Besides, the Liver (60 min p.i.) was 10.6 % Injected dose/organ.

On to `C1COC(CP(CCCP(CC2CCCO2)CC2CCCO2)CC2CCCO2)C1` (stereo not drawn) [Compound 35], for which, where the note is “2 min p.i.”, the Blood amounted to 10.5 % Injected dose/organ, the Heart was 0.59 % Injected dose/organ, the “Heart/Blood Counts/Gram Ratio” value turned out to be 0.88 and the “Heart/Liver Counts/Gram Ratio” value is recorded as 0.28. In addition, for the setting “2 min p.i.”, the Liver is on record as 28.2 % Injected dose/organ. For the setting “60 min p.i.”, the Blood is 1.44 % Injected dose/organ, the Heart is reported as 0.32 % Injected dose/organ, the “Heart/Blood Counts/Gram Ratio” value was 3.8 and the “Heart/Liver Counts/Gram Ratio” value is 0.46. In addition, the Liver (60 min p.i.) was 10.7 % Injected dose/organ.

In the case of `CCOC=CP(C=COCC)CCP(C=COCC)C=COCC` [Compound 6], where the note is “2 min p.i.”, the Blood stood at 15.6 % Injected dose/organ, the Heart is on record as 0.58 % Injected dose/organ, the “Heart/Blood Counts/Gram Ratio” value is 0.61 and the “Heart/Liver Counts/Gram Ratio” value was 0.18. The Liver (2 min p.i.) is listed as 44.3 % Injected dose/organ. Further, where the note is “60 min p.i.”, the Blood is reported as 3.26 % Injected dose/organ, the Heart is reported as 0.46 % Injected dose/organ, the “Heart/Blood Counts/Gram Ratio” value is listed as 2.2 and the “Heart/Liver Counts/Gram Ratio” value is listed as 0.19. Besides, under “60 min p.i.”, the Liver worked out at 30.6 % Injected dose/organ.

Take `CCOCCP(CCCP(CCOCC)CCOCC)CCOCC` [Compound 34]: under “2 min p.i.”, the Blood was found to be 19.5 % Injected dose/organ, the Heart was 0.41 % Injected dose/organ, the “Heart/Blood Counts/Gram Ratio” value is listed as 0.34 and the “Heart/Liver Counts/Gram Ratio” value is 0.22. In addition, the Liver (2 min p.i.) worked out at 29.7 % Injected dose/organ. Further, for the setting “60 min p.i.”, the Blood was determined as 4.56 % Injected dose/organ, the Heart came to 0.16 % Injected dose/organ, the “Heart/Blood Counts/Gram Ratio” value stood at 0.52 and the “Heart/Liver Counts/Gram Ratio” value came out at 0.21. Also, the Liver (60 min p.i.) amounted to 10.9 % Injected dose/organ.

With `CCOCCCP(CCCOCC)CCP(CCCOCC)CCCOCC` [Compound 4], under “2 min p.i.”, the Blood is 7.46 % Injected dose/organ, the Heart came to 1.00 % Injected dose/organ, the “Heart/Blood Counts/Gram Ratio” value is 1.96 and the “Heart/Liver Counts/Gram Ratio” value is reported as 0.81. Further, the Liver (2 min p.i.) turned out to be 18.8 % Injected dose/organ. For the same compound, for the setting “60 min p.i.”, the Blood is on record as 0.73 % Injected dose/organ, the Heart is 0.96 % Injected dose/organ, the “Heart/Blood Counts/Gram Ratio” value is 20.0 and the “Heart/Liver Counts/Gram Ratio” value is 2.13. For the setting “60 min p.i.”, this compound returned a Liver of 6.96 % Injected dose/organ.

Consider `CCOCCP(CCOC)CCP(CCOC)CCOCC` (stereo not drawn) [Compound 28], for which, under “2 min p.i.”, the Blood is on record as 9.0 % Injected dose/organ, the Heart was found to be 0.82 % Injected dose/organ, the “Heart/Blood Counts/Gram Ratio” value was found to be 1.62 and the “Heart/Liver Counts/Gram Ratio” value is 1.28. The compound further came in with a Liver (2 min p.i.) of 11.0 % Injected dose/organ. Moreover, for the setting “60 min p.i.”, the Blood worked out at 0.73 % Injected dose/organ, the Heart is given as 0.69 % Injected dose/organ, the “Heart/Blood Counts/Gram Ratio” value amounted to 15.5 and the “Heart/Liver Counts/Gram Ratio” value turned out to be 3.93. Besides, where the note is “60 min p.i.”, the Liver worked out at 2.94 % Injected dose/organ.

As to `CC1(C)OCC(CP(CCP(CC2COC(C)(C)O2)CC2COC(C)(C)O2)CC2COC(C)(C)O2)O1` (stereo not drawn) [Compound 22], under “2 min p.i.”, the Blood is listed as 10.4 % Injected dose/organ, the Heart turned out to be 0.99 % Injected dose/organ, the “Heart/Blood Counts/Gram Ratio” value was 1.20 and the “Heart/Liver Counts/Gram Ratio” value worked out at 0.79. The same compound returned a Liver (2 min p.i.) of 15.7 % Injected dose/organ. For the same compound, where the note is “60 min p.i.”, the Blood came to 1.23 % Injected dose/organ, the Heart is 1.00 % Injected dose/organ, the “Heart/Blood Counts/Gram Ratio” value is given as 12.3 and the “Heart/Liver Counts/Gram Ratio” value came to 3.99. For the setting “60 min p.i.”, this compound yielded a Liver of 3.41 % Injected dose/organ.

Take `CCOCCP(CCOC(C)C)CCP(CCOCC)CCOC(C)C` (stereo not drawn) [Compound 31]: where the note is “2 min p.i.”, the Blood was 6.88 % Injected dose/organ, the Heart is listed as 1.21 % Injected dose/organ, the “Heart/Blood Counts/Gram Ratio” value was determined as 3.05 and the “Heart/Liver Counts/Gram Ratio” value turned out to be 0.84. Where the note is “2 min p.i.”, this compound gave a Liver of 25.0 % Injected dose/organ. For the same compound, under “60 min p.i.”, the Blood worked out at 1.22 % Injected dose/organ, the Heart worked out at 0.99 % Injected dose/organ, the “Heart/Blood Counts/Gram Ratio” value came out at 13.4 and the “Heart/Liver Counts/Gram Ratio” value was 1.21. The same compound showed a Liver (60 min p.i.) of 12.4 % Injected dose/organ.

As to `C1CC(CP(CCP(CC2CCOCC2)CC2CCOCC2)CC2CCOCC2)CCO1` [Compound 25], where the note is “2 min p.i.”, the Blood is 18.10 % Injected dose/organ, the Heart was determined as 0.40 % Injected dose/organ, the “Heart/Blood Counts/Gram Ratio” value was 0.34 and the “Heart/Liver Counts/Gram Ratio” value is 0.94. This compound returned a Liver (2 min p.i.) of 5.74 % Injected dose/organ. Under “60 min p.i.”, the Blood is given as 1.51 % Injected dose/organ, the Heart came to 0.04 % Injected dose/organ, the “Heart/Blood Counts/Gram Ratio” value came out at 0.41 and the “Heart/Liver Counts/Gram Ratio” value was determined as 0.34. Also, the Liver (60 min p.i.) is listed as 1.60 % Injected dose/organ.

With `CCOCCP(CCOCC)c1ccccc1P(CCOCC)CCOCC` [Compound 37], for the setting “2 min p.i.”, the Blood is on record as 12.4 % Injected dose/organ, the Heart stood at 0.82 % Injected dose/organ, the “Heart/Blood Counts/Gram Ratio” value was 0.99 and the “Heart/Liver Counts/Gram Ratio” value came out at 0.35. For the setting “2 min p.i.”, the Liver is listed as 29.7 % Injected dose/organ. Besides, under “60 min p.i.”, the Blood is 3.25 % Injected dose/organ, the Heart is given as 0.54 % Injected dose/organ, the “Heart/Blood Counts/Gram Ratio” value is 2.62 and the “Heart/Liver Counts/Gram Ratio” value came to 0.63. The compound also displayed a Liver (60 min p.i.) of 12.0 % Injected dose/organ.

`C1COC(CP(CCP(CC2CCCO2)CC2CCCO2)CC2CCCO2)C1` (stereo not drawn) [Compound 24]: for the setting “2 min p.i.”, the Blood amounted to 3.92 % Injected dose/organ, the Heart worked out at 1.82 % Injected dose/organ, the “Heart/Blood Counts/Gram Ratio” value is listed as 6.98 and the “Heart/Liver Counts/Gram Ratio” value amounted to 1.74. Further, the Liver (2 min p.i.) was found to be 16.4 % Injected dose/organ. Under “60 min p.i.”, the Blood is recorded as 0.55 % Injected dose/organ, the Heart turned out to be 1.42 % Injected dose/organ, the “Heart/Blood Counts/Gram Ratio” value is reported as 39.7 and the “Heart/Liver Counts/Gram Ratio” value is recorded as 2.62. Also, the Liver (60 min p.i.) amounted to 8.56 % Injected dose/organ.

Regarding `COC(CCP(CCC(OC)OC)CCP(CCC(OC)OC)CCC(OC)OC)OC` [Compound 19], for the setting “2 min p.i.”, the Blood turned out to be 18.8 % Injected dose/organ, the Heart came to 0.46 % Injected dose/organ, the “Heart/Blood Counts/Gram Ratio” value was 0.37 and the “Heart/Liver Counts/Gram Ratio” value is reported as 1.29. For the setting “2 min p.i.”, this compound showed a Liver of 3.27 % Injected dose/organ. In addition, where the note is “60 min p.i.”, the Blood worked out at 0.88 % Injected dose/organ, the Heart came to 0.03 % Injected dose/organ, the “Heart/Blood Counts/Gram Ratio” value came out at 0.6 and the “Heart/Liver Counts/Gram Ratio” value was 0.76. Further, the Liver (60 min p.i.) is listed as 0.67 % Injected dose/organ.
